Patent USRE31181E, “Means and method for improving natural defenses against caries” (priority 1980, dated 1983)
Where a SMILES comes first, the peptide text is derived from it.

Tested on: oral bacteria
Experiment: pH of glucose solution incubated with oral bacteria (salivary sediment) and test substance
Type: cell-based
Conditions: for pH rising to (pH rise after the drop) / pH drop to (lowest pH reached): salivary sediment 16.7% (v/v), peptide 3.3 mM; for pH rising to (pH rise after the drop) / pH drop to (lowest pH reached) / pH: glucose 2.8 mM; for pH rising to (pH rise after the drop): measured through the fourth hour; for pH drop to (lowest pH reached): pH starts slightly above 7; for pH: substance 3.3 mM final, 37° C.
Description: Experiments were performed in vitro using supernatant saliva. The saliva was obtained from random donors whose salivary secretions were paraffin block stimulated. The saliva donations were pooled before and after sediment removal.
Four sets of three 10×75 mm test tubes were provided with 0.2 ml of 8.4 mM (millimolar) of aqueous glucose solution. Set I was provided with 0.2 ml of pooled supernatant saliva. Set II was provided with 0.2 ml of 9.9 mM of the peptide glycine-glycine-arginine. Set III was provided with 0.2 ml of 9.9 mM arginine. Set IV was provided with 0.2 ml of distilled water. Sequentially 0.2 ml of a 50:50 aqueous suspension of oral bacteria was added to each test tube. The concentration of the peptide in the combined composition was 3.3 mM. The prepared test tubes were kept at 37° C. in a water bath. pH readings were taken at 0 time when the bacteria were added and at 15, 30, 45, 60, 90, 120, 180 and 240 minutes.
The tests were carried out under the same conditions as Sets I-IV. The salivary sediment was present in an amount of 16.7% (v/v), glucose 2.8 mM and the peptide 3.3 mM in the final composition.
Duplicate runs without peptide were run parallel to the others as a double check. […] Measurement continues through the fourth hour.

[1] = time 0 minutes (bacteria added)

SMILES | pH rising to (pH rise after the drop) | pH drop to (lowest pH reached) | pH [1] | pH (time 15 minutes) | pH (time 30 minutes) | pH (time 45 minutes) | pH (time 60 minutes) | pH (time 90 minutes) | pH (time 120 minutes) | pH (time 180 minutes) | pH (time 240 minutes) | effectiveness as pH rise factor (synthesized peptide)
N=C(N)NCCC[C@H](N)C(=O)O.NCC(=O)O.NCC(=O)O [Gly--Gly--Arg, glycine-glycine-arginine] | 7.5 | 5.5 | 7.4 | 6.8 | 6.6 | 6.4 | 6.6 | 6.6 | 6.7 | 7.2 | 7.6 | –
N=C(N)NCCC[C@H](NC(=O)[C@H](CCCCN)NC(=O)CNC(=O)CN)C(=O)O [Gly--Gly--Lys--Arg, H-glycine-glycine-lysine-arginine-OH] (H-GGKR-OH) | 8.4 | 6.4 | – | – | – | – | – | – | – | – | – | proven effective
N=C(N)NCCC[C@H](N)C(=O)O [Set III, arginine, reference compound] | – | – | 7.3 | 5.8 | 5.4 | 5.2 | 4.9 | 5.0 | 5.0 | 5.3 | 5.8 | –
